We go through 6 molecules from ChEMBL document CHEMBL4334497, “Synthesis and Pharmacological Characterization of 2-(2,6-Dichlorophenyl)-1-((1S,3R)-5-(3-hydroxy-3-methylbutyl)-3-(hydroxymethyl)-1-methyl-3,4-dihydroisoquinolin-2(1H)-yl)ethan-1-one (LY3154207), a Potent, Subtype Selective, and Orally Available Positive Allosteric Modulator of the Human Dopamine …” (J Med Chem, 2019).

Converted amounts (≈) assume the structure as drawn. The source made the active and inactive calls.

Data set [1] in a line: Clearance in CD1 mouse 1 mg/kg, iv measured up to 24 hrs by LC-MS/MS.analysis. In kind it is ADME, organism-based. The conditions noted are these: in vivo.
Data set [2] can be described thus: Unbound intrinsic clearance in human liver microsomes. In kind it is ADME, Microsome.
Data set [3] is described as follows: Half life in CD1 mouse 1 mg/kg, iv measured up to 24 hrs by LC-MS/MS.analysis. The settings on record: in vivo. Type of data set: ADME, organism-based.
The nature of data set [4]: Unbound brain-to-plasma concentration ratio in mouse at 3 to 240 mg/kg, po by LC-MS/MS.analysis. In kind it is ADME, organism-based. The conditions noted are these: read-out: K(p,uu,brain).
Data set [5] addresses T1, D(1A) dopamine receptor (Homo sapiens, UniProt P21728). The data set can be described thus: Positive allosteric modulator activity at human D1 receptor stably expressed in HEK293 cells assessed as potentiation of EC20 dopamine-induced cAMP accumulation incubated for 60 mins by HTRF assay relative to dopamine alone. In kind it is functional, cell-based.
The nature of data set [6]: Unbound intrinsic clearance in mouse liver microsomes. In kind it is ADME, Microsome. A general note: Microsomes from liver hold many membrane-bound enzymes, among them those of drug oxidation.
A short description of data set [7]: Unbound fraction in mouse brain by equilibrium dialysis assay. In kind it is ADME, tissue-based. A general note: In equilibrium dialysis only unbound substance equilibrates across the membrane.
Data set [8] can be described thus: Permeability from apical to basolateral side in MDCK2 cells stably expressing human wild-type ABCB1 at 5 uM incubated for 60 mins. Type of data set: ADME, cell-based, Canis lupus familiaris. The settings on record: dog, mdck-ii, 1 h.
Data set [9] is described as follows: Volume of distribution at steady state in CD1 mouse 1 mg/kg, iv or 10 mg/kg, po measured up to 24 hrs by LC-MS/MS.analysis. In kind it is ADME, organism-based. The settings on record: in vivo, read-out: Vdss.
Data set [10] is described as follows: Oral bioavailability in CD1 mouse 10 mg/kg measured up to 24 hrs by LC-MS/MS.analysis. The settings on record: in vivo. In kind it is ADME, organism-based.
Data set [11] is described as follows: Unbound fraction in mouse liver microsomes by equilibrium dialysis assay. In kind it is ADME, Microsome.
Data set [12] is described as follows: Tmax in CD1 mouse 10 mg/kg, po measured up to 24 hrs by LC-MS/MS.analysis. Type of data set: ADME, organism-based. The conditions noted are these: in vivo.
A short description of data set [13]: AUC in CD1 mouse 10 mg/kg, po measured up to 24 hrs by LC-MS/MS.analysis. Type of data set: ADME, organism-based. Details: dose 10 mg/kg, time < 24 hr, route oral. The conditions noted are these: in vivo.
Data set [14] in a line: Solubility of the compound in pH 6.0 buffer by high throughput solubility assay. In kind it is physicochemical.
Data set [15] addresses T1, D(1A) dopamine receptor. Put plainly: Positive allosteric modulator activity at human D1 receptor stably expressed in HEK293 cells assessed as potentiation of EC20 dopamine-induced cAMP accumulation incubated for 60 mins by HTRF assay. Type of data set: functional, cell-based.
Data set [16] can be described thus: Cmax in CD1 mouse 10 mg/kg, po measured up to 24 hrs by LC-MS/MS.analysis. Type of data set: ADME, organism-based. Set-up: dose 10 mg/kg, route oral. The conditions noted are these: in vivo.
Data set [17] is described as follows: AUC in CD1 mouse 1 mg/kg, iv measured up to 24 hrs by LC-MS/MS.analysis. Type of data set: ADME, organism-based. Details: dose 1 mg/kg, time < 24 hr, route intravenous. The settings on record: in vivo.
A short description of data set [18]: Unbound fraction in mouse plasma by equilibrium dialysis assay. In kind it is ADME, cell-free.
Data set [19] relates to Mus musculus. Put plainly: Induction of locomotor activity in human D1 receptor knock-in habituated transgenic mouse assessed as increase in total ambulations at 30 to 60 mg/kg, sc measured for 60 mins after dosing by photocell beam monitoring based method. In kind it is functional, organism-based.
Data set [20] deals with Mus musculus. Put plainly: Induction of locomotor activity in human D1 receptor knock-in habituated transgenic mouse assessed as increase in total ambulations up to 10 mg/kg, sc measured for 60 mins after dosing by photocell beam monitoring based method. Type of data set: functional, organism-based.
The subject of data set [21] is Mus musculus. Put plainly: Induction of locomotor activity in human D1 receptor knock-in habituated transgenic mouse assessed as increase in total ambulations at 10 mg/kg, sc measured from 60 to 90 mins after daily dosing on day 2 to 4 by photocell beam monitoring based method relative to control. In kind it is functional, organism-based.
Data set [22] concerns Mus musculus. The data set can be described thus: Induction of locomotor activity in human D1 receptor knock-in habituated transgenic mouse assessed as increase in total ambulations at 10 mg/kg, sc measured from 60 to 90 mins after daily dosing on day 1 by photocell beam monitoring based method relative to control. In kind it is functional, organism-based.
A short description of data set [23]: Solubility in fasted state simulated intestinal fluids. Type of data set: physicochemical.
Data set [24] can be described thus: Solubility in fed state simulated intestinal fluids. Type of data set: physicochemical.

T1 sequence (P21728 whole entry): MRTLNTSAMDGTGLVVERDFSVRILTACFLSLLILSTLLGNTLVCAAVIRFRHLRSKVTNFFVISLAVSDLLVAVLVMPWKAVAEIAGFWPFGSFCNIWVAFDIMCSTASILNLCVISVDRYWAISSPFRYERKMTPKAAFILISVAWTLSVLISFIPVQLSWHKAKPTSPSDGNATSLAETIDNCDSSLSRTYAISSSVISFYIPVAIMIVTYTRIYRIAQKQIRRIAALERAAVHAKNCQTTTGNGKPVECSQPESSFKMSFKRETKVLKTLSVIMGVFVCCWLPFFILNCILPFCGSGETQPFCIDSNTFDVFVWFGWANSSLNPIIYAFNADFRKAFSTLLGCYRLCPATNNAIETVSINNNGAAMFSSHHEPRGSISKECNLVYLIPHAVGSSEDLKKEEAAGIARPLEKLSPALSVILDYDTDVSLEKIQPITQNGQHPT

As usually defined, the clearance is the rate of elimination divided by the concentration. Lower therefore signals a low capacity for elimination. As a reminder, the half-life is the time needed for the level to fall by half in the phase considered. Lower therefore signals fast loss. In general, Emax refers to the greatest response seen or fitted, relative to the assay's reference. What is called fraction unbound is the share of the substance not bound to proteins or other matrix. As a reminder, the bioavailability is dose-corrected exposure relative to a reference, in per cent. As a reminder, the Tmax is the time at which the peak concentration occurs. By AUC is commonly meant the area under the concentration-time curve, a measure of exposure. Read a high AUC as more exposure. The term solubility denotes the concentration that dissolves in the medium under given conditions. As a reminder, the EC50 is the midpoint of the concentration-response curve. By Cmax is commonly meant the peak of the concentration-time curve. `C[C@H]1c2cccc(C(C)(C)O)c2C[C@H](CO)N1C(=O)Cc1c(Cl)cccc1Cl` yielded a clearance in [1] of 96.9 mL/min/kg. In addition, the CL free in data set [2] worked out at 43 mL/min/kg; in [6], 965 mL/min/kg. This molecule showed a half-life in [3] of 13.8 min. In data set [4], the Kp uu turned out to be 1.1. Besides, the Emax in data set [5] is 93%. Further, the fraction unbound came to 0.055 in [7], 0.711 in data set [11] and 0.051 in data set [18]. In data set [8], this molecule came in with a permeability of 14%. The Vd in data set [9] came to 1.65 L/kg. Besides, the bioavailability in [10] is 9%. The Tmax in [12] turned out to be 30 min. Also, the AUC at 24 h was 0.367 µM·h in data set [13] and 0.406 µM·h in data set [17]. The same molecule returned a solubility in data set [14] of 116 µg/mL (≈ 275 µM). Also, the EC50 in data set [15] worked out at 13.9 nM. In data set [16], this molecule had a Cmax of 219 nM.

As to `C[C@H]1c2cccc(CC(C)(C)O)c2C[C@H](CO)N1C(=O)Cc1c(Cl)cccc1Cl`, the values for the CL free in data set [2] and in data set [6] were 31 mL/min/kg and 779 mL/min/kg, respectively. This molecule also returned a solubility in data set [14] of 156 µg/mL (≈ 357 µM). For the same molecule, in [15], the EC50 worked out at 76 nM.

`C=CCN1CCc2c(cc(O)c(O)c2Cl)C(c2ccccc2)C1` (stereo not given): in data set [19], the outcome was inactive. Further, the result in data set [20] was Active.

For `NC[C@@H]1O[C@H](C23CC4CC(CC(C4)C2)C3)Cc2c1ccc(O)c2O`, the outcome in [21] was inactive. For the same molecule, in data set [22], the outcome was Active.

With `C[C@H]1c2cccc(CCC(C)(C)O)c2C[C@H](CO)N1C(=O)Cc1c(Cl)cccc1Cl` (stereo in doubt; form 2) [MEVIDALEN], the solubility in data set [23] (simulated gi fluid) and in [24] (simulated gi fluid) was 2 µg/mL (≈ 4.44 µM) each time.

As to `C[C@H]1c2cccc(CCC(C)(C)O)c2C[C@H](CO)N1C(=O)Cc1c(Cl)cccc1Cl.O=C(O)c1ccc(O)cc1` [MEVIDALEN HYDROXYBENZOATE], the solubility in data set [23] (fasted state simulated intestinal fluid, read-out: solubility) was 206 µg/mL; in data set [24] (fed state simulated intestinal fluid, read-out: solubility) it was 697 µg/mL.
